# Source: patent publication US11026944B2, “Compositions and methods for treating insomnia” (Eisai R&D Management Co., Ltd., priority 2014, dated 2021)
# Assays:
# [1] = system: healthy adult subjects; assay: 002 Study: PK-PD exploratory analysis of next-day residual sleepiness; type: in vivo, human; settings: 9-10 hours postdose (1-2 hours after morning awakening), Day 2
# Method: For the PK-PD exploratory analysis of next-day residual sleepiness, population PK model-derived compound A plasma concentrations at 8, 9, and 10 hours following administration on the evening of Day 1 were related to change from baseline on the KSS, PVT Lapses, and DSST at 15 minutes, 1 hour, and 2 hours after waketime on the morning of Day 2, respectively. […] Concentrations below 30 ng/mL (which occur at doses below 25 mg) after 9-10 hours postdose, which correspond to the 1-2 hours after morning awakening, were associated with minimal or no change from baseline on the KSS, PVT Lapses, or DSST.
# [2] = system: subjects with insomnia; assay: 201 Study: population PK and PK/PD analysis; type: in vivo, human
# Method: During the Treatment period, blood samples for plasma concentrations of compound A were obtained within 30 minutes predose each night (except on Day 1) in the clinic and within 1 hour of morning waketime following each night spent in the clinic. Plasma concentrations of compound A were measured using a validated liquid chromatography-tandem mass spectrometry (LC-MS/MS) assay.
# The PK/PD Analysis Set was used to evaluate relationships between compound A concentrations and selected PD parameters. The relationships between exposure to compound A and selected PD endpoints (eg. KSS, DSST, RTI) were explored graphically and could be followed by population PK/PD modeling. The relationship between plasma concentrations of compound A at predose (trough), and within 1 hour after morning waketime, and selected PD parameters, was analyzed using Nonmem version 7.2 or later.
# Measures of the PD effects of compound A included KSS, RTI, DSST, the WFB (RTI, Rapid Visual Processing [RVP], and Spatial Span [SSP]), POMS, melatonin levels, and the DLMO. Due to high variability and non-normal distribution in change from baseline of LPS, it was not possible to reliably model the concentration-response relationship between compound A PK parameters and LPS. Nonetheless, higher plasma concentrations of compound A were associated with larger decreases in LPS, up to approximately 10 ng/mL. This finding was consistent with the efficacy results, where LPS was decreased at doses of 2.5 mg and higher. […] When modeled, WASO data were best described by log-linear relationships with the maximum observed concentration (Cmax). […] However, subjects whose compound A plasma concentrations were greater than 20 ng/mL at 1 hour after waking had slightly greater increases on the KSS and a higher incidence of AEs of somnolence. This concentration is predicted to be achieved by most subjects receiving doses greater than 10 mg.
structure (smiles),measurement,setting,value
"Cc1ncc(OC[C@@]2(c3cccc(F)c3)C[C@H]2C(=O)Nc2ccc(F)cn2)c(C)n1 [Compound A, (1R,2 S)-2-(((2,4-dimethylpyrimidin-5-yl)oxy)methyl)-2-(3-fluorophenyl)-N-(5-fluoropyridin-2-yl) cyclopropanecarboxamide]","plasma concentration associated with minimal or no change from baseline on KSS, PVT Lapses, DSST",[1],below 30 ng/mL
same,"next-day residual sleepiness (KSS, DSST, RTI) vs time-matched plasma concentrations",[2]; PK/PD analyses,did not show any apparent relationship
same,exposure-response relationship for WASO,[2]; PK/PD model,log-linear relationship with Cmax
same,plasma concentration up to which higher concentrations were associated with larger decreases in LPS,[2]; asymptote above this concentration,approximately 10 ng/mL
same,plasma concentration associated with slightly greater increases on the KSS and higher incidence of AEs of somnolence,[2]; at 1 hour after waking,greater than 20 ng/mL
same,Apparent clearance,[2]; population PK,independent of dose and time
same,PK model,[2]; population PK,2-compartment model with elimination from the central compartment
same,doses predicted to achieve plasma concentration greater than 20 ng/mL at 1 hour after waking in most subjects,[2]; predicted,greater than 10 mg
